Test results: PMC7686308, “Overcoming the blood–brain barrier by Annexin A1-binding peptide to target brain tumours” (British Journal of Cancer, 2020)
Peptide text beside a SMILES is read from it.

Key:
human MC16 peptide = assay: Plate binding assay to human MC16 peptide; conditions: biotinylated IF7C(RR) 1 μg/mL, MC16 10 nmoles coated, peroxidase-streptavidin
Protocol: (§1) We next assessed IF7 binding to recombinant human ANXA1 protein and human MC16 peptide in three ways (Fig. 2a-c). First, we added biotinylated IF7 in solution to plastic wells coated with monomeric MC16 and determined IF7 binding by peroxidase-conjugated streptavidin and a peroxidase colour reaction (Fig. 2a). […] Thus, we modelled the ANXA1 dimer using the Zdock module for protein–protein docking.[26] The IF7 docking pose was calculated to be −3.7 kcal/mol (Fig. 2d).
(§2) Fig. 2 Binding of IF7 to the ANXA1 N-terminal domain and full-length ANXA1 protein in vitro. a Plate binding assay of N-terminal biotinylated IF7C(RR) to human MC16 peptide and its mutants. Each synthetic MC16 and its mutant peptide (10 nmoles) was bound to maleimide-activated plastic well through its C-terminal cysteine residue. Biotinylated IF7C(RR) peptide (1 μg/mL) was added to each well and binding of biotinylated peptide was detected by peroxidase-conjugated streptavidin and peroxidase colour reaction. b FCS analysis of IF7 with ANXA1 (left) and with MC16 peptides (right) in solution. […] The proposed model was further validated by dG scoring, which was calculated using MOE software with GBVI/WSA, a program allows us to compare calculated and observed energetics.[59] The IF7 docking pose was calculated to be −3.7 kcal/mol.

[1] = system: MC16 mutant peptides F7A, K9A and E15A; assay: Plate binding assay to MC16 mutant peptides; parameters: species or system human; conditions: biotinylated IF7C(RR) 1 μg/mL, mutant peptide 10 nmoles coated
Protocol: as §1, §2

mouse MC16 = assay: Plate binding assay to mouse MC16 peptide
Protocol: as §2
Fig. 3 Targeting of IF7 to the brain tumour vasculature in vivo in the mouse. a Binding of IF7 and control peptides to mouse and human MC16 peptides by plate assay. Biotinylated IF7C(RR) and control C(RR) was assessed for their binding to MC16 in a similar manner as in Fig. 2a. b Targeting of fluorescent-labelled IF7 peptide to the brain tumour vasculature in the mouse. […] Blue fluorescence (left panels) represents nuclear Hoechst 33342 and green fluorescence (right) represents Alexa 488. […]

[2] = system: ANXA1 exhibiting a free N-terminus; assay: FCS binding to ANXA1 with free N-terminus; parameters: species or system human; conditions: IF7C-A546, 37 °C, 1 h, increase in diffusion time
Protocol: (§3) A mixture of IF7C-A546 with Anxa1 or MC16 (50 μl) was loaded into each well of a 96-well plate and incubated at 37 °C for 1 h. FCS was performed with the MF20 analytical system (Olympus) using a 543 nm He–Ne laser for illumination. Each sample was measured five times with a data acquisition time of 10 sec per measurement. IF7C(RR) binding was defined as an increase in translational diffusion time relative to a control.
as §2

[3] = system: N-terminally His-tagged ANXA1; assay: FCS binding to N-terminally His-tagged ANXA1; parameters: species or system human; conditions: IF7C-A546, 37 °C, 1 h, diffusion time
Protocol: as §3, §2

tetrameric MC16 = assay: FCS binding to tetrameric MC16; parameters: species or system human; conditions: IF7C-A546, 37 °C, 1 h, diffusion time
monomeric MC16 = assay: FCS binding to monomeric MC16; parameters: species or system human; conditions: IF7C-A546, 37 °C, 1 h, diffusion time
Protocol: as §3, §2

[4] = Histology of tumours from mice injected with IF7; type: in vivo, mouse; conditions: histological analysis, data not shown
[5] = system: ANXA1 with a free N-terminus; conditions: plate binding analysis; cited from earlier work
Excerpt: (§4) We next assessed IF7 binding to recombinant human ANXA1 protein and human MC16 peptide in three ways (Fig. 2a-c). First, we added biotinylated IF7 in solution to plastic wells coated with monomeric MC16 and determined IF7 binding by peroxidase-conjugated streptavidin and a peroxidase colour reaction (Fig. 2a). […] Second, we assessed binding of IF7 and MC16 in solution by fluorescence correlation spectrometry (FCS) ( ...

[6] = system: N-terminally His-Tagged ANXA1; conditions: plate binding analysis; cited from earlier work
Excerpt: as §4

[7] = system: subcutaneous colon tumours; conditions: mouse, in vivo; cited from earlier work

Structure (SMILES): CC[C@H](C)[C@H](N)C(=O)N[C@@H](Cc1ccccc1)C(=O)N[C@@H](CC(C)C)C(=O)N[C@@H](CC(C)C)C(=O)N[C@@H](Cc1c[nH]c2ccccc12)C(=O)N[C@@H](CCC(N)=O)C(=O)N[C@@H](CCCNC(=N)N)C(=O)N[C@@H](CS)C(=O)N[C@@H](CCCNC(=N)N)C(=O)N[C@@H](CCCNC(=N)N)C(=O)O [IF7] (H-IFLLWQRCRR-OH; N-terminus and C-terminus assumed)
- IF7 binding to MC16 (human MC16 peptide): IF7 bound to WT MC16
- IF7 binding to MC16 mutants [1]: binding was significantly reduced
- binding to human and mouse MC16 compared (mouse MC16; Fig. 3a, human versus mouse MC16): IF7 bound both human and mouse MC16 peptides equally
- binding to mouse MC16 (mouse MC16; biotinylated IF7C(RR), in a similar manner as in Fig. 2a): IF7 binding to N-terminal domain of mouse MC16 was confirmed
- binding in solution to untagged ANXA1 [2]: IF7 bound to ANXA1 exhibiting a free N-terminus
- binding in solution to N-terminally His-tagged ANXA1 [3]: not to N-terminally His-tagged ANXA1
- binding in solution to tetrameric MC16 (tetrameric MC16): IF7 bound to tetrameric rather than monomeric MC16
- binding in solution to MC16 monomer (monomeric MC16): the diffusion time of IF7 with MC16 monomer did not increase
- signs of inflammation in tumours [4]: did not reveal signs of inflammation
- plate binding to ANXA1 with free N-terminus [5]: IF7 bound ANXA1 with a free N-terminus
- plate binding to N-terminally His-Tagged ANXA1 [6]: not N-terminally His-Tagged ANXA1
- fluorescent signals 15 min after i.v. injection [7]: fluorescent signals are seen in vesicles at mostly the basal side of vasculature
- fluorescent signals 40 min after i.v. injection [7]: fluorescence is seen in the stroma and in tumour cells
